Consider 22 compounds from patent US9266881B2, “Triazolopyridinone PDE10 inhibitors” (Merck Sharp & Dohme Corp., priority 2011, dated 2016).

The experiment addresses human PDE10A2 (Homo sapiens (Human), UniProt Q9Y233). Description: PDE10 fluorescence polarization (IMAP FP) inhibition assay. In kind it is biochemical. How it is done:
The activity of the compounds in accordance with the present invention as PDE10 inhibitors may be readily determined without undue experimentation using a fluorescence polarization (FP) methodology that is well known in the art (Huang, W., et al., J. Biomol Screen, 2002, 7: 215).
In a typical experiment the PDE10 inhibitory activity of the compounds of the present invention was determined in accordance with the following experimental method. PDE10A2 was amplified from human fetal brain cDNA (Clontech, Mountain View, Calif.) using a forward primer corresponding to nucleotides 56-77 of human PDE10A2 (Accession No. AF127480, Genbank Identifier 4894716), containing a Kozak consensus sequence, and a reverse primer corresponding to nucleotides 2406-2413 of human PDE10A2 (Accession No. AF127480, Genbank Identifier 4894716). Amplification with Easy-A polymerase (Stratagene, La Jolla, Calif.) was 95° C. for 2 minutes followed by thirty three cycles of 95° C. for 40 seconds, 55° C. for 30 seconds, and 72° C. for 2 minutes 48 seconds. Final extension was 72° C. for 7 minutes. The PCR product was TA cloned into pcDNA3.2-TOPO (Invitrogen, Carlsbad, Calif.) according to standard protocol. AD293 cells with 70-80% confluency were transiently transfected with human PDE10A2/pcDNA3.2-TOPO using Lipofectamine 2000 according to manufacturer specifications (Invitrogen, Carlsbad, Calif.). Cells were harvested 48 hours post-transfection and lysed by sonication (setting 3, 10×5 sec pulses) in a buffer containing 20 mM HEPES, 1 mM EDTA and protease inhibitor cocktail (Roche). Lysate was collected by centrifugation at 75,000×g for 20 minutes. Supernatant containing the cytoplasmic fraction was used for evaluation of PDE10A2 activity. The fluorescence polarization assay for cyclic nucleotide phosphodiesterases was performed using an IMAP® FP kit supplied by Molecular Devices, Sunnyvale, Calif. (product #R8139). IMAP® technology has been applied previously to phosphodiesterase assays (Huang, W., et al., J. Biomol Screen, 2002, 7: 215). Assays were performed at room temperature in 384-well microtiter plates with an incubation volume of 20.2 μl. Solutions of test compounds were prepared in DMSO and serially diluted with DMSO to yield 8 μL of each of 10 solutions differing by 3-fold in concentration, at 32 serial dilutions per plate. 100% inhibition is determined using a known PDE10 inhibitor, which can be any compound that is present at 5,000 times its Ki value in the assay described as follows, such as papaverine (see Siuciak, et al. Neuropharmacology (2006) 51:386-396; Becker, et al. Behav Brain Res (2008) 186(2):155-60; Threlfell, et al., J Pharmacol Exp Ther (2009) 328(3):785-795), 2-{4-[pyridin-4-yl-1-(2,2,2-trifluoroethyl)-1H-pyrazol-3-yl]phenoxymethyl}quinoline succinic acid or 2-[4-(1-methyl-4-pyridin-4-yl-1H-pyrazol-3-yl)-phenoxymethyl]quinoline succinic acid (see Schmidt, et al. J Pharmacol Exp Ther (2008) 325:681-690; Threlfell, et al., J Pharmacol Exp Ther (2009) 328(3): 785-795). 0% of inhibition is determined by using DMSO (1% final concentrations).
A Labcyte Echo 555 (Labcyte, Sunnyvale, Calif.) is used to dispense 200 nL from each well of the titration plate to the 384 well assay plate. A solution of enzyme (1/1600 dilution from aliquots; sufficient to produce 20% substrate conversion) and a separate solution of FAM-labeled cAMP PDE from Molecular Devices (product #R7506), at a final concentration of 50 nM are made in the assay buffer (10 mM Tris HCl, pH 7.2, 10 mM MgCl2, 0.05% NaN3 0.01% Tween-20, and 1 mM DTT). The enzyme and the substrate are then added to the assay plates in two consecutive additions of 10 μL, and then shaken to mix. The reaction is allowed to proceed at room temperature for 30 minutes. A binding solution is then made from the kit components, comprised of 80% Solution A, 20% Solution B and binding reagent at a volume of 1/600 the total binding solution. […]

[1] abbreviates: human PDE10A2 lysate, IMAP FP, 50 nM FAM-labeled cAMP, room temperature, read-out: PDE10A Ki.
Where [2] appears, read: human PDE10 enzyme, aforementioned assays, read-out: Ki for inhibiting the human PDE10 enzyme (range given).

Where two headings read alike, the source gives them in different places.

human PDE10A2, sequence (Q9Y233 267-1055): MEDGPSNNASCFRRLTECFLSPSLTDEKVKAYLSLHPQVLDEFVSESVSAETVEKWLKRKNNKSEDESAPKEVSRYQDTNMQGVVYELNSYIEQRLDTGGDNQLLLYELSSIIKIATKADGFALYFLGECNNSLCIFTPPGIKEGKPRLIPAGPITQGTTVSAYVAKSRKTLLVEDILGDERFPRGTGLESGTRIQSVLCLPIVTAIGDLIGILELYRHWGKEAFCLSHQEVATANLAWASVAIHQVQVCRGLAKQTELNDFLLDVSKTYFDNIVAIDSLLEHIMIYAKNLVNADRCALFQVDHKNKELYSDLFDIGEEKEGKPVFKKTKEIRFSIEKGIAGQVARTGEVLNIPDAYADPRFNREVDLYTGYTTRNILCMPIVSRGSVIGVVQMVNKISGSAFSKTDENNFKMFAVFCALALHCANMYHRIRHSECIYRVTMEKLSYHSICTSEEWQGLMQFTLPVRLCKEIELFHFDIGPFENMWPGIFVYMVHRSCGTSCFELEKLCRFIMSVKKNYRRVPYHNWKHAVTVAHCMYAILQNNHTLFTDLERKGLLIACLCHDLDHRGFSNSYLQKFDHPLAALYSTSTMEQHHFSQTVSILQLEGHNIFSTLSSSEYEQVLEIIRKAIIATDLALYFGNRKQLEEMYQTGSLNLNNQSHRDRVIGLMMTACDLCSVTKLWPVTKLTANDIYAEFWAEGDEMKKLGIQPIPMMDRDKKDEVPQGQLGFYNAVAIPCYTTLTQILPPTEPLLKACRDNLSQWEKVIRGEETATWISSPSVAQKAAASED

As for `O=c1n(CCc2ccc3ccccc3n2)nc2c(-c3ncco3)cccn12` [Compound 4-1, 8-(1,3-oxazol-2-yl)-2-(2-quinolin-2-ylethyl)[1,2,4]triazolo[4,3-a]pyridin-3(2H)-one], under setting [1], the Ki came to 22 nM.

Turning to `Cn1cc(-c2ccccc2)nc1CCn1nc2cccc(-c3ccncc3)n2c1=O` [Compound B-1, 2-[2-(1-methyl-4-phenyl-1H-imidazol-2-yl)ethyl]-5-pyridin-4-yl[1,2,4]triazolo[4,3-a]pyridin-3(2H)-one], the inhibition constant Ki runs as follows: under setting [1], 2 nM; under setting [2], 0.1 to 10 nM.

With `Cc1cccn2c(=O)n(CCc3ccc4ccccc4n3)nc12` [Compound A-2, 8-methyl-2-(2-quinolin-2-ylethyl)[1,2,4]triazolo[4,3-a]pyridin-3(2H)-one], under setting [1], the Ki was determined as 74 nM.

Consider `O=c1n(CCc2ccc3ccccc3n2)nc2ccc(Br)cn12` [Compound 3-4, 6-bromo-2-(2-quinolin-2-ylethyl)[1,2,4]triazolo[4,3-a]pyridin-3(2H)-one], for which, under setting [1], the Ki was found to be 155 nM.

On to `Cc1ccc(-c2cccc3nn(CCc4ccc5ccccc5n4)c(=O)n23)cc1` [Compound A-3, 5-(4-methylphenyl)-2-(2-quinolin-2-ylethyl)[1,2,4]triazolo[4,3-a]pyridin-3(2H)-one], for which the Ki under setting [1] was determined as 17 nM.

Regarding `O=c1n(CCc2ccc3ccccc3n2)nc2cccc(N3CCCCC3)n12` [Compound A-6, 5-piperidin-1-yl-2-(2-quinolin-2-ylethyl)[1,2,4]triazolo[4,3-a]pyridin-3(2H)-one], the inhibitory constant (Ki) under setting [1] turned out to be 19 nM.

On to `O=c1n(CCc2ccc3ccccc3n2)nc2cccc(-c3ccccc3)n12` [Compound A-5, 5-phenyl-2-(2-quinolin-2-ylethyl)[1,2,4]triazolo[4,3-a]pyridin-3(2H)-one], for which the Ki under setting [1] was 20 nM.

For the compound `O=c1n(CCc2ccc3ccccc3n2)nc2cccc(N3CCOCC3)n12` [Compound 6-1, 5-morpholin-4-yl-2-(2-quinolin-2-ylethyl)[1,2,4]triazolo[4,3-a]pyridin-3(2H)-one], the Ki is, setting by setting: under setting [1], 2.5 nM; under setting [2], 0.1 to 10 nM.

Take `O=c1n(C[C@@H]2C[C@H]2c2ccccn2)nc2cccc(N3CCOCC3)n12` [Compound 13-6, 5-morpholino-2-(((1R,2R)-2-(pyridin-2-yl)cyclopropyl)methyl)-[1,2,4]triazolo[4,3-a]pyridin-3(2H)-one]: under setting [1], the Ki was determined as 546 nM.

As for `O=c1n(CCc2ccc3ccccc3n2)nc2cccc(-c3cncs3)n12` [Compound A-4, 2-(2-quinolin-2-ylethyl)-5-(1,3-thiazol-5-yl)[1,2,4]triazolo[4,3-a]pyridin-3(2H)-one], the inhibitory constant (Ki) under setting [1] was found to be 23 nM.

Take `O=c1n(CCc2ccc3ccccc3n2)nc2cccc(Br)n12` [Compound 2-4, 5-bromo-2-(2-quinolin-2-ylethyl)[1,2,4]triazolo[4,3-a]pyridin-3(2H)-one]: under setting [1], the Ki came out at 59 nM.

`O=c1n(CCc2ccc3ncccc3n2)nc2c(-c3ccncc3)cccn12` [Compound 10-4, 2-[2-(1,5-naphthyridin-2-yl)ethyl]-8-pyridin-4-yl[1,2,4]triazolo[4,3-a]pyridin-3(2H)-one]: the Ki under setting [1] turned out to be 103 nM.

`O=c1n(CCc2ccc3ccccc3n2)nc2cccc(NCc3cccnc3)n12` [Compound A-7, 5-[(pyridin-3-ylmethyl)amino]-2-(2-quinolin-2-ylethyl)[1,2,4]triazolo[4,3-a]pyridin-3(2H)-one]: the Ki under setting [1] came out at 12 nM.

As to `COc1ccc(C(C)(O)c2cccc3nn(CCc4ccc5ccccc5n4)c(=O)n23)cc1` (stereo not shown) [Compound 7-2, 5-[1-hydroxy-1-(4-methoxyphenyl)ethyl]-2-(2 - quinolin-2-ylethyl)[1,2,4]triazolo[4,3-a]pyridin-3(2H)-one], the Ki under setting [1] was determined as 11 nM.

For `O=c1n(CCc2ccc3ccccc3n2)nc2c(Br)cccn12` [Compound 1-6], the Ki under setting [1] is 37 nM.

As for `CC(C)(O)c1cccc2nn(CCc3ccc4ccccc4n3)c(=O)n12` [Compound A-8, 5-(1-hydroxy-1-methylethyl)-2-(2-quinolin-2-ylethyl)[1,2,4]triazolo[4,3-a]pyridin-3(2H)-one], the Ki under setting [1] is 72 nM.

As to `O=c1n(CCc2ccc3ccccc3n2)nc2cccc(-c3ccncc3)n12` [Compound 5-1, 5-pyridin-4-yl-2-(2-quinolin-2-ylethyl)[1,2,4]triazolo[4,3-a]pyridin-3(2H)-one], the inhibition constant Ki is 4.4 nM under setting [1] and 0.1 to 10 nM under setting [2].

Consider `O=c1n(CCc2ccc3ccccc3n2)nc2ccc(-c3cccnc3)cn12` [Compound 9-1, 6-pyridin-3-yl-2-(2-quinolin-2-ylethyl)[1,2,4]triazolo[4,3-a]pyridin-3(2H)-one], for which the Ki under setting [1] was 510 nM.

With `Cn1cc(-c2ccccc2)nc1CCn1nc2cccc(Br)n2c1=O` [Compound 11-4, 5-bromo-2-[2-(1-methyl-4-phenyl-1H-imidazol-2-yl)ethyl][1,2,4]triazolo[4,3-a]pyridin-3(2H)-one], the Ki is 7.2 nM under setting [1] and 0.1 to 10 nM under setting [2].

With `Cn1cc(-c2ccccc2)nc1CCn1nc2cccc(N3CCOCC3)n2c1=O` [Compound 12-1, 2-[2-(1-methyl-4-phenyl-1H-imidazol-2-yl)ethyl]-5-morpholin-4-yl[1,2,4]triazolo[4,3-a]pyridin-3(2H)-one], the inhibition constant (Ki) under setting [1] was 0.41 nM and the Ki under setting [2] fell in the range of 0.1 to 10 nM.

`O=C(Nc1cccnc1)c1cccc2nn(CCc3ccc4ccccc4n3)c(=O)n12` [Compound 8-2, 3-oxo-N-pyridin-3-yl-2-(2-quinolin-2-ylethyl)-2,3-dihydro[1,2,4]triazolo[4,3-a]pyridine-5-carboxamide]: the Ki under setting [1] is 97 nM.

As for `O=c1n(CCc2ccc3ccccc3n2)nc2cccc(-c3cccnc3)n12` [Compound A-1, 5-pyridin-3-yl-2-(2-quinolin-2-ylethyl)[1,2,4]triazolo[4,3-a]pyridin-3(2H)-one], the Ki under setting [1] is 9 nM and the Ki under setting [2] fell in the range of 0.1 to 10 nM.
